Results on 21 compounds are retold here after patent US20180118718A1, “Substituted Quinoxaline Derivatives” (Selvita S.A., priority 2015, published 2018).

For the test, the target named is T1, Human recombinant His-tagged PFKFB3 (Homo sapiens, UniProt Q16875).
T1 construct: His; made in house
T1 sequence (Q16875 whole entry): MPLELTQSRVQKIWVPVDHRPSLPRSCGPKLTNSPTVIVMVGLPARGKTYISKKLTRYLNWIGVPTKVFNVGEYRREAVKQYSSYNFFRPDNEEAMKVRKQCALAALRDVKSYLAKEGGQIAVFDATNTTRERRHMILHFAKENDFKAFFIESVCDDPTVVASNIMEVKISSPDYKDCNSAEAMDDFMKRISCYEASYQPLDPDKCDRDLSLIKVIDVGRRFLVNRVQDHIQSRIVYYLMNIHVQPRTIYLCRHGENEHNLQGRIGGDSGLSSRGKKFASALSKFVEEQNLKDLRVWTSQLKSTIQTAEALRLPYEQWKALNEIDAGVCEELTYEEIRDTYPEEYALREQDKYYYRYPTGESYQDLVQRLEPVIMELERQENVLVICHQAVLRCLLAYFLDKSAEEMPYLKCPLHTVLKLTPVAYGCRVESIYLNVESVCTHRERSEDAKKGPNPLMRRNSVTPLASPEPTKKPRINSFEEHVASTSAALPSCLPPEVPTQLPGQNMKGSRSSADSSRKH
The experiment in a line: PFKFB3 IC50 Determination Assay (in vitro kinase assay, modified ADP-Glo system). The format is biochemical. To be noted: ATP 20 μM and fructose-6-phosphate 2 μM (Km), 25 nM PFKFB3, 2 h, rt, ADP-Glo luminescence. Summed up:
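In-house His-tagged human PFKFB3 phosphorylates fructose-6-phosphate with ATP and substrate at Km; ADP measured by luminescence with 5x-diluted ADP-Glo reagents. Compounds tested at 10 concentrations, routinely 100 μM to 1 nM, in duplicate, 6.7% final DMSO. Data normalized to no-substrate control, expressed as % positive control; IC50 by four-parameter fit.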
Regarding `CN1CCC(NC(=O)c2ccccc2Nc2cc(-c3ccc4ccn(C)c4c3)c3nccnc3c2)C1` (stereo not drawn) [Example 183, 2-{[8-(1-Methyl-1H-indol-6-yl)quinoxalin-6-yl]amino}-N-(1-methylpyrrolidin-3-yl)benzamide], the IC50 (in general, the concentration that gives 50% inhibition) was 1 to 1000 nM. With `CS(=O)(=O)c1ccncc1Nc1cc(-c2ccc(N)c(F)c2)c2nccnc2c1` [Example 186, 8-(4-Amino-3-fluorophenyl)-N-(4-methanesulfonylpyridin-3-yl)quinoxalin-6-amine], the IC50 was in the range of 1 to 1000 nM. As for `CS(=O)(=O)c1ccncc1Nc1cc(-c2ccc(F)cc2)c2nccnc2c1` [Example 188, 8-(4-Fluorophenyl)-N-(4-methanesulfonylpyridin-3-yl)quinoxalin-6-amine], the IC50 was in the range of 1 to 1000 nM. Regarding `CS(=O)(=O)c1ccccc1Nc1cc(-c2ccc3sc(N)nc3c2)c2nccnc2c1` [Example 190, 8-(2-Amino-1,3-benzothiazol-5-yl)-N-(2-methanesulfonylphenyl)quinoxalin-6-amine], the IC50 lay within 1 to 1000 nM. As to `Cc1csc2ccc(-c3cc(Nc4ccccc4S(C)(=O)=O)cc4nccnc34)cc12` [Example 191, N-(2-Methanesulfonylphenyl)-8-(3-methyl-1-benzothiophen-5-yl)quinoxalin-6-amine], the IC50 was 1 to 1000 nM. For `CCc1cc(CC)cc(-c2cc(Nc3cnccc3S(C)(=O)=O)cc3nccnc23)c1` [Example 192, 8-(3,5-Diethylphenyl)-N-(4-methanesulfonylpyridin-3-yl)quinoxalin-6-amine], the IC50 was in the range of 1000 to 10000 nM.

As for `Cc1cc2ccn(C)c2cc1-c1cc(Nc2cnccc2S(C)(=O)=O)cc2nccnc12` [Example 195, 8-(1,5-Dimethyl-1H-indol-6-yl)-N-(4-methanesulfonylpyridin-3-yl)quinoxalin-6-amine], the half-maximal inhibitory concentration (IC50) was in the range of 1 to 1000 nM. Take `Cn1ccc2ccc(-c3cc(Oc4cnccc4C(=O)O)cc4nccnc34)cc21` [Example 198, 3-{[8-(1-methyl-1H-indol-6-yl)quinoxalin-6-yl]oxy}pyridine-4-carboxylic acid]: the IC50 is 10000 to 100000 nM. Turning to `Cc1csc2ccc(-c3cc(Nc4ccccc4S(=O)(=O)NC4CCN(C)C4)cc4nccnc34)cc12` (stereo not drawn) [Example 199, 2-{[8-(3-Methyl-1-benzothiophen-5-yl)quinoxalin-6-yl]amino}-N-(1-methylpyrrolidin-3-yl)benzene-1-sulfonamide], the IC50 was 1 to 1000 nM. For `CC(=O)Nc1cc2cc(-c3cc(Nc4cnccc4S(C)(=O)=O)cc4nccnc34)ccc2s1` [Example 200, N-(5-{7-[(4-Methanesulfonylpyridin-3-yl)amino]quinoxalin-5-yl}-1-benzothiophen-2-yl)acetamide], the IC50 fell in the range of 1000 to 10000 nM. `CN(C)c1nc2cc(-c3cc(Nc4cnccc4S(C)(=O)=O)cc4nccnc34)ccc2s1` [Example 201, 8-[2-(Dimethylamino)-1,3-benzothiazol-5-yl]-N-(4-methanesulfonylpyridin-3-yl)quinoxalin-6-amine]: the IC50 lay within 10000 to 100000 nM.

On to `CNc1nc2cc(-c3cc(Nc4cnccc4S(C)(=O)=O)cc4nccnc34)ccc2s1` [Example 202, N-(4-Methanesulfonylpyridin-3-yl)-8-[2-(methylamino)-1,3-benzothiazol-5-yl]quinoxalin-6-amine], for which the IC50 is 1000 to 10000 nM.

As for `Cn1ccc2ccc(-c3cc(Nc4ncncc4Br)cc4nccnc34)cc21` [Example 204, N-(5-Bromopyrimidin-4-yl)-8-(1-methyl-1H-indol-6-yl)quinoxalin-6-amine], the IC50 is 10000 to 100000 nM. For the compound `Cc1csc2ccc(-c3cc(Nc4cnccc4C(N)=O)cc4nccnc34)cc12` [Example 205, 3-{[8-(3-Methyl-1-benzothiophen-5-yl)quinoxalin-6-yl]amino}pyridine-4-carboxamide], the IC50 was in the range of 1 to 1000 nM. Turning to `CC(=O)N1CC(NC(=O)c2ccncc2Nc2cc(-c3ccc4scc(C)c4c3)c3nccnc3c2)C1` [Example 206, N-(1-Acetylazetidin-3-yl)-3-{[8-(3-methyl-1-benzothiophen-5-yl)quinoxalin-6-yl]amino}pyridine-4-carboxamide], the IC50 lay in the range of 1 to 1000 nM. For the compound `Cn1ccc2ccc(-c3cc(Nc4cnccc4C(=O)Nc4cccnc4)cc4nccnc34)cc21` [Example 207, 3-{[8-(1-Methyl-1H-indol-6-yl)quinoxalin-6-yl]amino}-N-(pyridin-3-yl)pyridine-4-carboxamide], the IC50 is 1 to 1000 nM. As for `Cn1ccc2ccc(-c3cc(Nc4ccccc4S(=O)(=O)NC4CCCOC4)cc4nccnc34)cc21` (stereo not drawn) [Example 209, 2-{[8-(1-Methyl-1H-indol-6-yl)quinoxalin-6-yl]amino}-N-(oxan-3-yl)benzene-1-sulfonamide], the IC50 lay in the range of 1 to 1000 nM. `CS(=O)(=O)c1ccncc1Nc1cc(-c2ccc(Br)c(F)c2)c2nccnc2c1` [Example 211, 8-(4-Bromo-3-fluorophenyl)-N-(4-methanesulfonylpyridin-3-yl)quinoxalin-6-amine]: the IC50 lay in the range of 1 to 1000 nM. Take `Cc1cc(Br)ccc1-c1cc(Nc2cnccc2S(C)(=O)=O)cc2nccnc12` [Example 212, 8-(4-Bromo-2-methylphenyl)-N-(4-methanesulfonylpyridin-3-yl)quinoxalin-6-amine]: the IC50 lay in the range of 1 to 1000 nM.

As for `CS(=O)(=O)c1ccncc1Nc1cc(-c2ccc(S(F)(F)(F)(F)F)cc2)c2nccnc2c1` [Example 213, N-(4-Methanesulfonylpyridin-3-yl)-8-[4-(pentafluoro-λ^6-sulfanyl)phenyl]quinoxalin-6-amine], the IC50 is 10000 to 100000 nM. With `CN1CCC(NC(=O)c2ccncc2Nc2cc(-c3ccc(Br)cc3)c3nccnc3c2)C1` (stereo not drawn) [Example 215, 3-{[8-(4-Bromophenyl)quinoxalin-6-yl]amino}-N-(1-methylpyrrolidin-3-yl)pyridine-4-carboxamide] the figure was 1 to 1000 nM.
